Source: patent publication US12540131B2 (Merck Sharp & Dohme LLC, priority 2019, dated 2026)

biological target: GST tagged truncated human mutant G2019S LRRK2 (Homo sapiens (Human), UniProt Q5S007, G2019S); assay: LRRK2 Km ATP LanthaScreen Assay; assay type: biochemical; settings: G2019S LRRK2, 134 μM ATP (Km ATP), mean values
Outline: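 Enzyme (GST-tagged, truncated) was preincubated with compound for 15 min at RT in 50 mM Tris pH 8.5, 10 mM MgCl2, 0.01% Brij-35, 1 mM EGTA, 2 mM DTT and 0.05 mM orthovanadate. Fluorescein-LRRKtide and 134 μM ATP (Km) were then added for 90 min. EDTA and Tb-anti-pERM antibody stopped the reaction; the TR-FRET 520/495 ratio gave 4-parameter IC50s, reported as mean pIC50.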

Sequence of GST tagged truncated human mutant G2019S LRRK2 (Q5S007 970-2527 G2019S): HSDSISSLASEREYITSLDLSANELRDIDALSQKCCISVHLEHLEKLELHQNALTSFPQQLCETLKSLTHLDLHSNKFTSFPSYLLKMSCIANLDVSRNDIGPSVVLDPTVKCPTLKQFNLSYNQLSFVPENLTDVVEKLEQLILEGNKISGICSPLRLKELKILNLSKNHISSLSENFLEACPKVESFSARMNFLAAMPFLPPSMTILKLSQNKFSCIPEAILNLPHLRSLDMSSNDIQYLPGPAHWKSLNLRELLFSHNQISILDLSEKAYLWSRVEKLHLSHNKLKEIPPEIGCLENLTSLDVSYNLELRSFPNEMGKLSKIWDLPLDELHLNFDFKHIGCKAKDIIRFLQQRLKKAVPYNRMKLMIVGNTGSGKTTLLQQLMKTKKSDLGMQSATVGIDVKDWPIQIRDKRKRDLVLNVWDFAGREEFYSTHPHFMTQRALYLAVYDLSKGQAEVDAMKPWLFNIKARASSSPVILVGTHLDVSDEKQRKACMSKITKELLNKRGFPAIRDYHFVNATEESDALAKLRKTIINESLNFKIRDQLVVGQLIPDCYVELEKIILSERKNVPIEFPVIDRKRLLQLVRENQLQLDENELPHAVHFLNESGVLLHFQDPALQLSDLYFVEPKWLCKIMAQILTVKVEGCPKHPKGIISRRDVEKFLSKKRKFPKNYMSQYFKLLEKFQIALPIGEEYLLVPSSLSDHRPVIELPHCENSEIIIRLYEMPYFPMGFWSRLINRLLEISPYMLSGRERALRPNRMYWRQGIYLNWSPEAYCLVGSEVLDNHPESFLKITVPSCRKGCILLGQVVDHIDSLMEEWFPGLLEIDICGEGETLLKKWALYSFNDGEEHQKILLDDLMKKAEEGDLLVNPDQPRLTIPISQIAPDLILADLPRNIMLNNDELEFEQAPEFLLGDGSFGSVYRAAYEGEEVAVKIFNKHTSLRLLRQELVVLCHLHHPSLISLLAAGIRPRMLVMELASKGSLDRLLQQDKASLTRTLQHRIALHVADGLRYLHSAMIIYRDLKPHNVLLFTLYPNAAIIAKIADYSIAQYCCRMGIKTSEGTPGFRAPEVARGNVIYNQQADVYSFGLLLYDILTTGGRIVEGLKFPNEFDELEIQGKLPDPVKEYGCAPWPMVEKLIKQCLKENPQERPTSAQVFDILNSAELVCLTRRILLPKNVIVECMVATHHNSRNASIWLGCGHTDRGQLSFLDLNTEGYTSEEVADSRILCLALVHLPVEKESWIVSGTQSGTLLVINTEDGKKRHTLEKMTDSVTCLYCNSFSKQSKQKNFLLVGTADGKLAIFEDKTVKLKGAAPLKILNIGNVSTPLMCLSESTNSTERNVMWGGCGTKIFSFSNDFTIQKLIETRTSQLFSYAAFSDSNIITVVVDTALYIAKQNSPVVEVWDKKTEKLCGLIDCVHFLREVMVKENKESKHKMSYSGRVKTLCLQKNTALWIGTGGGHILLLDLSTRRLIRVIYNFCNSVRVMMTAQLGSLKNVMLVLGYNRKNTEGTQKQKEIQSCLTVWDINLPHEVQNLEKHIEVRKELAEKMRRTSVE

First: CO[C@H]1COC[C@H]1N1CC[C@@H](c2cc3nc(Nc4cnn(C5CC5)c4Cl)ncc3cc2C)[C@H](F)C1 (single isomer, unassigned) [Ex-4.261, (3S,4S)(3S,4S) or (3S,4S)(3R,4R) or (3R,4R)(3S,4S) or (3R,4R)(3R,4R) N-(5-chloro-1-cyclopropyl-1H-pyrazol-4-yl)-7-[3-fluoro-1-(4-methoxyoxolan-3-yl)piperidin-4-yl]-6-methylquinazolin-2-amine]
Second: Cc1c(Nc2ncc3cc(Cl)c([C@H]4CCN(C5COC5)C[C@@H]4F)cc3n2)cnn1C1CC1(F)F (single isomer, unassigned) [Ex-4.175, (R)(3S,4S) or (S)(3S,4S) or (R)(3R,4R) or (S)(3R,4R) 6-chloro-N-[1-(2,2-difluorocyclopropyl)-5-methyl-1H-pyrazol-4-yl]-7-[(3R,4R)-3-fluoro-1-(oxetan-3-yl)piperidin-4-yl]quinazolin-2-amine]
The “LRRK2 pIC50” value of the first is lower: 7.51 for the first, 9.10 for the second.

`O[C@@H]1COC[C@@H]1N1CC[C@H](c2cc3nc(Nc4cnn(C56CC(C5)C6)c4Cl)ncc3cc2Cl)[C@@H](F)C1` (single isomer, unassigned) [Ex-8.32, (3S,4S)(3S,4S) or (3S,4S)(3R,4R) or (3R,4R)(3S,4S) or (3R,4R)(3R,4R) 4-[4-(2-{[1-(bicyclo[1.1.1]pentan-1-yl)-5-chloro-1H-pyrazol-4-yl]amino}-6-chloroquinazolin-7-yl)-3-fluoropiperidin-1-yl]oxolan-3-ol] and `CC(n1ncc(Nc2ncc3cc(Cl)c([C@@H]4CCN(C5COC5)C[C@H]4F)cc3n2)c1Cl)C(C)(C)O` (single isomer, unassigned) [Ex-4.69, (R)(3S,4S) or (R)(3R,4R) or (S)(3S,4S) or (S)(3R,4R) 3-[5-chloro-4-({6-chloro-7-[3-fluoro-1-(oxetan-3-yl)piperidin-4-yl]quinazolin-2-yl}amino)-1H-pyrazol-1-yl]-2-methylbutan-2-ol] are within 0.2 log units of each other in “LRRK2 pIC50” value: 9.05 for the first, 9.13 for the second.

Compared with `OC1(Cn2ncc(Nc3ncc4cc(Cl)c(C5CCN(C6COC6)CC5)cc4n3)c2Cl)CCC1` [Ex-8.26, 1-{[5-chloro-4-({6-chloro-7-[1-(oxetan-3-yl)piperidin-4-yl]quinazolin-2-yl}amino)-1H-pyrazol-1-yl]methyl}cyclobutan-1-ol], `N#Cc1cc2cnc(Nc3cnn(C4CC4)c3Cl)nc2cc1C1CCN(C2COC2)CC1` [Ex-6.3, 2-((5-chloro-1-cyclopropyl-1H-pyrazol-4-yl)amino)-7-(1-(oxetan-3-yl)piperidin-4-yl)quinazoline-6-carbonitrile] is higher in “LRRK2 pIC50” value: 8.78 for the first, 9.07 for the second.

`CC1CC(c2cc3nc(Nc4cnn(C5CC5)c4Cl)ncc3cc2Cl)CCN1C1COC1` (single isomer, unassigned) [Ex-4.107, (2S,4S) or (2R,4R) or (2S,4R) or (2R,4S) 6-chloro-N-(5-chloro-1-cyclopropyl-1H-pyrazol-4-yl)-7-(2-methyl-1-(oxetan-3-yl)piperidin-4-yl)quinazolin-2-amine] and `Cc1c(Nc2ncc3cc(Cl)c(C4CCN([C@@H]5COC[C@@H]5O)CC4)cc3n2)cnn1C1CC1` (single isomer, unassigned) [Ex-4.131, (3S,4S) or (3R,4R) 4-(4-{6-chloro-2-[(1-cyclopropyl-5-methyl-1H-pyrazol-4-yl)amino]quinazolin-7-yl}piperidin-1-yl)oxolan-3-ol] are within 0.2 log units of each other in “LRRK2 pIC50” value: 8.52 for the first, 8.62 for the second.

First: Cc1cc2cnc(Nc3cnn(CC(C)(C)O)c3C)nc2cc1[C@@H]1CCN(C2COC2)C[C@H]1F (single isomer, unassigned) [Ex-5.5, (3S,4S) or (3R,4R) 1-[4-({7-[3-fluoro-1-(oxetan-3-yl)piperidin-4-yl]-6-methylquinazolin-2-yl}amino)-5-methyl-1H-pyrazol-1-yl]-2-methylpropan-2-ol]
Second: Cc1cc2cnc(Nc3cnn(C)c3C)nc2cc1C1CCN([C@]2(C)COC[C@@H]2O)CC1 (single isomer, unassigned) [Ex-2.81, (3S,4S) or (3R,4R) 4-(4-{2-[(1,5-dimethyl-1H-pyrazol-4-yl)amino]-6-methylquinazolin-7-yl}piperidin-1-yl)-4-methyloxolan-3-ol]
The “LRRK2 pIC50” value of the first is higher: 8.37 for the first, 7.35 for the second.

Compared with `Cc1c(Nc2ncc3cc(Cl)c(C4CCN(C[C@]5(O)C[C@H](C#N)C5)CC4)cc3n2)cnn1C1CC1` [Ex-4.229, trans-3-[(4-{6-chloro-2-[(1-cyclopropyl-5-methyl-1H-pyrazol-4-yl)amino]quinazolin-7-yl}piperidin-1-yl)methyl]-3-hydroxycyclobutane-1-carbonitrile], `Cc1c(Nc2ncc3cc(Cl)c(C4CCN(C[C@@H](O)c5cccc(F)c5F)CC4)cc3n2)cnn1C1CC1` [Ex-4.207, (1S)-2-(4-{6-chloro-2-[(1-cyclopropyl-5-methyl-1H-pyrazol-4-yl)amino]quinazolin-7-yl}piperidin-1-yl)-1-(2,3-difluorophenyl)ethan-1-ol] is lower in “LRRK2 pIC50” value: 8.95 for the first, 8.31 for the second.

`FC(F)n1cc(Nc2ncc3cc(Cl)c(C4CCN(C5COC5)CC4)cc3n2)cn1` [Ex-4.18, 6-chloro-N-[1-(difluoromethyl)-1H-pyrazol-4-yl]-7-[1-(oxetan-3-yl)piperidin-4-yl]quinazolin-2-amine] and `CC1(N2CCC(c3cc4nc(Nc5cnn(C67CC(C(C)(C)O)(C6)C7)c5)ncc4cc3Cl)CC2)COC1` [Ex-2.58, 2-{3-[4-({6-chloro-7-[1-(3-methyloxetan-3-yl)piperidin-4-yl]quinazolin-2-yl}amino)-1H-pyrazol-1-yl]bicyclo[1.1.1]pentan-1-yl}propan-2-ol] are within 0.2 log units of each other in “LRRK2 pIC50” value: 9.16 for the first, 9.17 for the second.

In the case of `Cc1cc(Nc2ncc3cc(Cl)c(C4CCN(C5COC5)CC4)cc3n2)sn1` [Ex-4.45, 6-chloro-N-(3-methyl-1,2-thiazol-5-yl)-7-[1-(oxetan-3-yl)piperidin-4-yl]quinazolin-2-amine], the “LRRK2 pIC50” value is reported as >9.20.
`Cn1ncc(Nc2ncc3cc(Cl)c([C@@H]4CCN([C@@]5(C)COC[C@H]5O)C[C@H]4F)cc3n2)c1C(F)(F)F` (single isomer, unassigned) [Ex-4.253, (3S,4S)(3S,4S) or (3S,4S)(3R,4R) or (3R,4R)(3S,4S) or (3R,4R)(3R,4R) 4-[4-(6-chloro-2-{[1-methyl-5-(trifluoromethyl)-1H-pyrazol-4-yl]amino}quinazolin-7-yl)-3-fluoropiperidin-1-yl]-4-methyloxolan-3-ol] was tested, and the “LRRK2 pIC50” value was >9.20.
For `C[C@@]1(N2CCC(c3cc4nc(Nc5cnn(C6CC6)c5Cl)ncc4cc3Cl)CC2)COC[C@@H]1O` (single isomer, unassigned) [Ex-1.7, (3R,4R)- or (3S,4S)-4-(4-(6-chloro-2-((5-chloro-1-cyclopropyl-1H-pyrazol-4-yl)amino)quinazolin-7-yl)piperidin-1-yl)-4-methyltetrahydrofuran-3-ol], the “LRRK2 pIC50” value was >9.20.
For `Cc1c(Nc2ncc3cc(Cl)c([C@@H]4CCN([C@@H]5COC[C@@H]5O)C[C@H]4F)cc3n2)cnn1C1CC1(F)F` (single isomer, unassigned) [Ex-4.181, (R)(3S,4S)(3S,4S) or (R)(3S,4S)(3R,4R) or (R)(3R,4R)(3S,4S) or (R)(3R,4R)(3R,4R) or (S)(3S,4S)(3S,4S) or (S)(3S,4S)(3R,4R) or (S)(3R,4R)(3S,4S) or (S)(3R,4R)(3R,4R) 4-(4-(6-chloro-2-((1-(2,2-difluorocyclopropyl)-5-methyl-1H-pyrazol-4-yl)amino)quinazolin-7-yl)-3-fluoropiperidin-1-yl)tetrahydrofuran-3-olyl]amino}quinazolin-7-yl)-3-fluoropiperidin-1-yl]oxolan-3-ol], the “LRRK2 pIC50” value was >9.20.
For `CC1(n2ncc(Nc3ncc4cc(Cl)c([C@H]5CCNC[C@@H]5F)cc4n3)c2Cl)CC1` (single isomer, unassigned) [Ex-4.92, (3S,4S) or (3R,4R) 6-chloro-N-[5-chloro-1-(1-methylcyclopropyl)-1H-pyrazol-4-yl]-7-(3-fluoropiperidin-4-yl)quinazolin-2-amine], the “LRRK2 pIC50” value was >9.20.
`Cn1ncc(Nc2ncc3cc(Cl)c([C@@H]4CCN([C@@H]5COC[C@@H]5O)C[C@H]4F)cc3n2)c1C1CC1` (single isomer, unassigned) [Ex-4.239, (3S,4S)(3S,4S) or (3S,4S)(3R,4R) or (3R,4R)(3S,4S) or (3R,4R)(3R,4R) 4-(4-{6-chloro-2-[(5-cyclopropyl-1-methyl-1H-pyrazol-4-yl)amino]quinazolin-7-yl}-3-fluoropiperidin-1-yl)oxolan-3-ol] was tested, and the “LRRK2 pIC50” value was >9.20.
In the case of `CC1(n2ncc(Nc3ncc4cc(Cl)c([C@@H]5CCNC[C@H]5F)cc4n3)c2Cl)CC1` (single isomer, unassigned) [Ex-4.91, (3S,4S) or (3R,4R) 6-chloro-N-[5-chloro-1-(1-methylcyclopropyl)-1H-pyrazol-4-yl]-7-(3-fluoropiperidin-4-yl)quinazolin-2-amine], the “LRRK2 pIC50” value is reported as >9.20.

same assay, conditions: G2019S LRRK2, 134 μM ATP (Km ATP), mean values; read-out: LRRK2 pIC50 (converted)

First: C[C@@H]1CC(c2cc3nc(Nc4cnn(C5CC5)c4Cl)ncc3cc2Cl)CCN1C1COC1 (single isomer, unassigned) [Ex-1.11, (S) or (R) 6-chloro-N-(5-chloro-1-cyclopropyl-1H-pyrazol-4-yl)-7-(2-methyl-1-(oxetan-3-yl)piperidin-4-yl)quinazolin-2-amine]
Second: CC(O)(Cn1ncc(Nc2ncc3cc(Cl)c(C4CCN(C5COC5)CC4)cc3n2)c1Cl)C(F)(F)F (single isomer, unassigned) [Ex-8.27, (S) or (R) 3-[5-chloro-4-({6-chloro-7-[1-(oxetan-3-yl)piperidin-4-yl]quinazolin-2-yl}amino)-1H-pyrazol-1-yl]-1,1,1-trifluoro-2-methylpropan-2-ol]
The IC50 of the first is lower: < 0.631 nM for the first, 0.851 nM for the second.

`CCN1CC[C@@H](c2cc3nc(Nc4cnn(CC(C)(C)O)c4Cl)ncc3cc2Cl)[C@H](F)C1` (single isomer, unassigned) [Ex-4.5, (3S,4S) or (3R,4R) 1-(5-chloro-4-((6-chloro-7-(1-ethyl-3-fluoropiperidin-4-yl)quinazolin-2-yl)amino)-1H-pyrazol-1-yl)-2-methylpropan-2-ol] was tested, and the IC50 was 1.62 nM.
